Literature values as cited in patent publication US6780852B2 (priority 1997, dated 2004).

In the case of Ferric gluconate, the “transient hypotension and flushing, share of exposed patients” value is listed as 1%.
